Tests used:
Format in all cases: cell-based
[1] = test system: PC-3, A549, HCT 116, U87-MG, MDA-MB-231, NCI-H23, NCI-H460, T47D; assay: Growth inhibition assay for cell lines with varying sensitivity to rapamycin; details: 3 days; including cell types partially sensitive or insensitive to Rapamycin; FIG. 8
Protocol: Growth Inhibition Assay for Cell Lines with Varying Sensitivity to Rapamycin (Compound 1). Cells were plated in 96-well plates at densities determined for each cell line and the following day were treated with a range of Compound 1 concentrations. The cells were incubated for 3 days at 37° C. and then […] of WST-1 (Roche) for PC-3, A549, HCT 116, U87-MG, MDA-MB-231, and NCI-H23) or […] CellTiter-Glo reagent (Promega) for NCI-H460, T47D) was added to each well and the assay was completed according to manufacturer protocols. The percentage inhibition at each concentration of compound was normalized to the DMSO control values. The percentage inhibition was determined for each replicate and then the 3 values were averaged for each set of triplicate wells. All data were analyzed using XLfit from IDBS. The formula used for determining IC50 in Xlfit was model number 205, which utilizes a 4-parameter logistic model or sigmoidal dose-response model to calculate IC50 values. IC50 values are reported as an average.
Rapamycin effects on proliferation tend to plateau in most cell lines.

[2] = test system: SNU-387; assay: Growth inhibition assay for HCC lines; details: SNU-387, 96 hours, RPMI 1640 + 10% FBS
Protocol: (§1) Growth Inhibition Assay for HCC and NHL Lines. The seeding density for each cell line was optimized to ensure assay linearity in 384-well plates.
(§2) Compound 1 was dissolved in dimethyl sulfoxide (DMSO) to prepare a 10 mM stock solution. A serial titration was performed to produce a working concentration range of […] to 10 mM. Aliquots to produce final concentrations of 1.5 nM to 10 μM were spotted via an acoustic dispenser (EDC ATS-100) into an empty 384-well plate. Compound 1 was spotted in a 10-point serial dilution fashion (3-fold dilution) in duplicate within the plate. The DMSO concentration was kept constant for a final assay concentration of 0.1% DMSO. Plates were replicated for use with different cell lines and testing periods. After compound plate replication, all plates were sealed (Agilent ThermoLoc) and stored at −20° C. for up to 1 month. […] When ready for testing, plates were removed from the freezer, thawed, and unsealed just prior to the addition of the test cells. Prior to testing, cells were grown and expanded in culture flasks to provide sufficient amounts of starting material. Cells were then diluted to the appropriate densities and added directly to the compound-spotted 384-well plates. Cells were allowed to grow for 96 hours at 37° C./5% CO2. At the time when compound was added (t0), initial cell number was assessed via a viability assay (Cell Titer-Glo) by quantifying the level of luminescence generated by ATP present in viable cells. After 96 hours, cell viability of compound-treated cells was assessed via Cell Titer-Glo and luminescence measurement. Cell lines were assayed for growth inhibition by Compound 1 in at least 3 independent tests. A control cell line (the lung tumor cell line, A549) was included in each of the assays. The compound response against this control cell line was monitored closely to enable comparison of the data generated through the assay period. All data were normalized and presented as a percentage of the DMSO-treated cells. Results were then expressed as a GI50 value. The GI50 value corrects for the cell count at time zero. In addition, the IC50 value of Compound 1 for each cell line was calculated.

[3] = test system: PLC-PRF-5; assay: Growth inhibition assay for HCC lines; details: PLC-PRF-5, 96 hours, DMEM + 10% FBS
Protocol: as §1, §2

[4] = test system: HuH-7; assay: Growth inhibition assay for HCC lines; details: HuH-7, 96 hours, DMEM + 10% FBS
Protocol: as §1, §2

[5] = test system: HepG2; assay: Growth inhibition assay for HCC lines; details: HepG2, 96 hours, DMEM + 10% FBS
Protocol: as §1, §2

[6] = test system: SNU-423; assay: Growth inhibition assay for HCC lines; details: SNU-423, 96 hours, RPMI 1640 + 10% FBS
Protocol: as §1, §2

[7] = test system: SNU-449; assay: Growth inhibition assay for HCC lines; details: SNU-449, 96 hours, RPMI 1640 + 10% FBS
Protocol: as §1, §2

[8] = test system: Hep3B; assay: Growth inhibition assay for HCC lines; details: 96 hours, DMEM + 10% FBS
Protocol: as §1, §2

[9] = test system: SNU-475; assay: Growth inhibition assay for HCC lines; details: SNU-475, 96 hours, RPMI 1640 + 10% FBS
Protocol: as §1, §2

[10] = test system: SNU-182; assay: Growth inhibition assay for HCC lines; details: SNU-182, 96 hours, RPMI 1640 + 10% FBS
Protocol: as §1, §2

[11] = test system: SNU-398; assay: Growth inhibition assay for HCC lines; details: SNU-398, 96 hours, RPMI 1640 + 10% FBS
Protocol: as §1, §2

[12] = test system: SK-HEP-1; assay: Growth inhibition assay for HCC lines; details: SK-HEP-1, 96 hours, DMEM + 10% FBS
Protocol: as §1, §2

## CO[C@H]1CC[C@H](N2C(=O)CNc3ncc(-c4ccc(C(C)(C)O)nc4)nc32)CC1 [Compound 1, 7-(6-(2-hydroxypropan-2-yl)pyridin-3-yl)-1-((1r,4r)-4-methoxycyclohexyl)-3,4-dihydropyrazino-[2,3-b]pyrazin-2(1H)-one]
[1]
  cell growth inhibition: potent cell growth inhibition
[2]
  GI50: 1260 ± 470 nM
  IC50: 2470 ± 930 nM
[3]
  GI50: 310 ± 70 nM
  IC50: 430 ± 70 nM
[4]
  GI50: 70 ± 30 nM
  IC50: 100 ± 40 nM
[5]
  GI50: 240 ± 60 nM
  IC50: 320 ± 130 nM
[6]
  GI50: 300 ± 50 nM
  IC50: 480 ± 60 nM
[7]
  GI50: 370 ± 70 nM
  IC50: 480 ± 110 nM
[8]
  GI50: 260 ± 70 nM
  IC50: 340 ± 110 nM
[9]
  GI50: 460 ± 90 nM
  IC50: 690 ± 140 nM
[10]
  GI50: 80 ± 30 nM
  IC50: 260 ± 100 nM
[11]
  GI50: 280 ± 60 nM
  IC50: 290 ± 50 nM
[12]
  GI50: 270 ± 40 nM
  IC50: 330 ± 70 nM
